Source: patent publication US5861404A, “2,9-disubstituted purin-6-ones” (Bayer Aktiengesellschaft, priority 1995, dated 1999)

Tests used:
Format in all cases: biochemical
[1] = system: Ca-calmodulin-stimulatable PDE I; test: Inhibition of the phosphodiesterases in vitro: PDE I; settings: PDE I from porcine aorta or porcine brain; nucleotide 10^-6 mol/l; 1 μM CaCl2, 0.1 μM calmodulin; pH 7.5, 30 minutes
Protocol: (§1) The cGMP-stimulatable PDE II, the cGMP-inhibitable PDE III and the cAMP-specific PDE IV were isolated from either porcine or bovine myocardium. The Ca-calmodulin-stimulatable PDE I was isolated from the porcine aorta or porcine brain. The cGMP-specific PDE V was obtained from the porcine small intestine, porcine aorta and/or human blood platelets. Purification was carried out by anion exchange chromatography over MonoQ Phaacia essentially by the method of M. Hoey and Miles D. Houslay, Biochemical Pharmacology, Vol. 40, 193-202 (1990).
(§2) The enzyme activity is determined in a test batch of 100 μl in 20 mM Tris/HCl buffer of pH 7.5 which comprises 5 mM MgCl2, 0.1 mg/ml of bovine serum albumin and either 800 Bq of ^3 HcAMP or ^3 HcGMP. The final concentration of the corresponding nucleotides is 10^-6 mol/l. The reaction is started by addition of the enzyme and the amount of enzyme is chosen such that about 50% of the substrate is reacted during the incubation time of 30 minutes. To test the cGMP-stimulatable PDE II, ^3 HcAMP is used as the substrate and 10^-6 mol/l of non-labelled cGMP is added to the batch. To test the Ca-calmodulin-dependent PDE I, 1 μM CaCl2 and 0.1 μM calmodulin are also added to the reaction batch. The reaction is stopped by addition of 100 μl of acetonitrile which comprises 1 mnM cAMP and 1 mM AMP. 100 μl of the reaction batch are separated on the HPLC column and the cleavage products are determined quantitatively "online" with a flow-through scintillation counter. The substance concentration at which the rate of reaction is reduced by 50% is measured.

cGMP-stimulatable PDE II = test: Inhibition of the phosphodiesterases in vitro: PDE II; settings: PDE II from porcine or bovine myocardium; 3H-cAMP substrate 10^-6 mol/l with 10^-6 mol/l cGMP; pH 7.5, 30 minutes
Protocol: as §1, §2

cGMP-specific PDE V = test: Inhibition of the phosphodiesterases in vitro: PDE V; settings: PDE V from porcine small intestine, porcine aorta and/or human blood platelets; nucleotide 10^-6 mol/l; pH 7.5, 30 minutes
Protocol: as §1, §2

| SMILES | IC50 [1] [nM] | IC50 (cGMP-stimulatable PDE II) [nM] | IC50 (cGMP-specific PDE V) [nM] |
| --- | --- | --- | --- |
| CCCCCCC(C(C)O)n1cnc2c(=O)[nH]c(-c3ccc(Cl)cc3)nc21 (centres unmarked) [Example 5] | 10000 | 3000 | 50000 |
| CC(O)C(CCCc1ccccc1)n1cnc2c(=O)[nH]c(C3CCCCC3)nc21 (centres unmarked) [Example 8, 9-(2-hydroxy-6phenyl-3-hexyl)-2-cyclohexyl-purin-6one] | 40000 | 2000 | – |
| CC(CCCc1ccccc1)n1cnc2c(=O)[nH]c(C3CC3)nc21 (centres unmarked) [Example 14] | 4000 | 600 | 300 |

The remaining molecules from weak to strong by IC50 [1], led by results:

| IC50 [1] [nM] | IC50 (cGMP-stimulatable PDE II) [nM] | IC50 (cGMP-specific PDE V) [nM] | SMILES |
| --- | --- | --- | --- |
| 3000 | 100 | 10000 | CC(CCCc1ccccc1)n1cnc2c(=O)[nH]c(-c3ccc4c(c3)OCO4)nc21 (centres unmarked) [Example 25] |
| 1000 | 400 | 1000 | CC(CCCc1ccccc1)n1cnc2c(=O)[nH]c(-c3ccc(-c4ccccc4)cc3)nc21 (centres unmarked) [Example 20] |
